Test results from patent US7022648B2, “Plant seeds treated with N,N′-substituted ureas” (Stoller Enterprises, Inc., priority 1996, dated 2006).
Values joined by “and” are separate entries in the source; they are usually repeats but may differ in a detail not shown here. Identical values can stand only once.

Experiments:
Assay type in all cases: in vivo
Corn [1] = assay: Preliminary greenhouse pot test, seeds soaked in diformylurea solution, root and shoot mass; conditions: seed soak 24 h, 30 days
Procedure: (§1) In a preliminary experiment to determine the agricultural value of the N,N′-diformylurea prepared above, a concentrate was prepared by mixing 200 grams diformylurea and 200 grams formic acid, adjusting the ph to about 5.5 by the addition of potassium hydroxide and adding sufficient water to make 1 liter. […] Low, medium and high dilution aqueous solutions were prepared by diluting, respectively, 0.8 grams, 8.0 grams and 40.0 grams of the concentrate per liter of final solution. […] The foregoing solutions were used to coat corn, soybean, cotton and rice seeds prior to planting. Coating was achieved by soaking the seeds in the foregoing solutions for about 24 hours. Sufficient solution was used to keep the seeds immersed. Control seeds were soaked in water for the same time. Untreated or control seeds, together with seeds treated by the low, medium and high dilution solutions, were planted in 1 gallon greenhouse pots. Six pots were used for each dilution or control with five seeds planted per pot. The plants were thinned to two plants per pot after emergence. The plants were watered and fertilized as required. After 30 days the plants were harvested and the roots and shoots examined. The roots and shoots were weighed separately and the root/shoot ratio determined. The treated plants were generally characterized by both greater root mass and shoot mass when compared to the controls. The root/shoot ratio for most of the treated plants was greater than that for the controls.

Cotton = assay: as above; conditions: seed soak 24 h, 30 days
Procedure: as §1

Rice = assay: as above; conditions: seed soak 24 h, 30 days
Procedure: as §1

Soybean [2] = assay: as above; conditions: seed soak 24 h, 30 days
Procedure: as §1

Corn [3] = assay: Greenhouse pot test, seed treatment 0.01 M diformylurea; conditions: seed treated, 24 h soak, 30 days
Procedure: (§2) Based upon the foregoing preliminary work, additional experiments to investigate the effect of diformylurea on other plant species was undertaken. These experiments were also designed to compare the effect of treating seeds as described above with foliar treatment. Wheat, corn and peanuts were selected for the next phase of this work. Diformylurea was prepared by reacting formic acid and urea at a molar ratio of 2:1 as described above. An aqueous solution containing diformylurea at a concentration of 0.01 M was prepared. For the seed treatment portion of the experiments, the seeds to be treated were soaked in the foregoing solution for about 24 hours before planting. The control seeds were again soaked in water for the same time. Both control and treated seeds were planted in 1 gallon greenhouse pots. Five seeds were planted in each pot. Each pot was thinned to two plants after germination. For the foliar treatment portion of the experiment, plants grown from untreated seeds were sprayed with a solution containing 0.01 M. diformylurea at the three leaf stage. All plants were watered and fertilized as required. Thirty days after planting, the plants were harvested and the roots and shoots examined. The mass of both the roots and shoots and the total mass of the plant in each pot were determined.

Peanuts = assay: as above; conditions: seed treated, 24 h soak, 30 days
Procedure: as §2

Wheat = assay: as above; conditions: seed treated, 24 h soak, 30 days
Procedure: as §2

Soybean [4] = assay: Greenhouse pot test, effect of diformylurea concentration applied to seeds; conditions: seed treated, 24 h soak, 30 days; for Roots (gm), Average / Shoots (gm), Average / Total (gm), Average: average of samples
Procedure: Additional experiments were designed to study further the effect of the concentration of diformylurea applied to the seeds of several other crops. These experiments were conducted using cotton, rice, corn and soybeans. These experiments were similar to the preliminary experiments described above. The concentrate described above, containing both diformylurea and formate, was used to prepare solutions containing low, medium and high concentrations of diformylurea having, respectively, 0.001 M, 0.01 M and 0.05 M diformylurea. These solutions were used to treat the seeds of cotton, rice, corn and soybeans. Seeds of each of these crops were soaked in water or the prepared aqueous solutions of diformylurea for 24 hours before planting. Five seeds were planted in each of six, 1 gallon greenhouse pots. Pots were thinned to two plants after germination and the plants watered and fertilized as needed for 30 days. Thereafter, the plants were harvested and the mass of the roots, shoots and total mass determined.

Structure (SMILES): O=CNC(=O)NC=O [diformylurea, N,N′-diformylurea]
- crown roots on plants grown from treated seeds (Corn [1]): crown roots were noticed
- Root/Shoot Ratio (Corn [1]; High dilution, 0.068 M): 1.09
- Roots (gm) (Corn [1]; High dilution, 0.068 M): 9.60 gm
- Shoots (gm) (Corn [1]; High dilution, 0.068 M): 8.80 gm
- Total (gm) (Corn [1]; High dilution, 0.068 M): 18.40 gm
- Root/Shoot Ratio (Corn [1]; Low dilution, 0.0013 M): 1.04
- Roots (gm) (Corn [1]; Low dilution, 0.0013 M): 9.80 gm
- Shoots (gm) (Corn [1]; Low dilution, 0.0013 M): 9.40 gm
- Total (gm) (Corn [1]; Low dilution, 0.0013 M): 19.20 gm
- Root/Shoot Ratio (Corn [1]; Medium dilution, 0.013 M): 1.08
- Roots (gm) (Corn [1]; Medium dilution, 0.013 M): 10.40 gm
- Shoots (gm) (Corn [1]; Medium dilution, 0.013 M): 9.60 gm
- Total (gm) (Corn [1]; Medium dilution, 0.013 M): 20.00 gm
- Root/Shoot Ratio (Cotton; High dilution, 0.068 M): 0.73
- Roots (gm) (Cotton; High dilution, 0.068 M): 5.07 gm
- Shoots (gm) (Cotton; High dilution, 0.068 M): 6.90 gm
- Total (gm) (Cotton; High dilution, 0.068 M): 11.97 gm
- Root/Shoot Ratio (Cotton; Low dilution, 0.0013 M): 1.46
- Roots (gm) (Cotton; Low dilution, 0.0013 M): 7.85 gm
- Shoots (gm) (Cotton; Low dilution, 0.0013 M): 5.38 gm
- Total (gm) (Cotton; Low dilution, 0.0013 M): 13.23 gm
- Root/Shoot Ratio (Cotton; Medium dilution, 0.013 M): 1.08
- Roots (gm) (Cotton; Medium dilution, 0.013 M): 4.50 gm
- Shoots (gm) (Cotton; Medium dilution, 0.013 M): 5.25 gm
- Total (gm) (Cotton; Medium dilution, 0.013 M): 9.75 gm
- crown roots on plants grown from treated seeds (Rice): crown roots were noticed
- Root/Shoot Ratio (Rice; High dilution, 0.068 M): 2.10
- Roots (gm) (Rice; High dilution, 0.068 M): 0.82 gm
- Shoots (gm) (Rice; High dilution, 0.068 M): 0.39 gm
- Total (gm) (Rice; High dilution, 0.068 M): 1.21 gm
- Root/Shoot Ratio (Rice; Low dilution, 0.0013 M): 1.78
- Roots (gm) (Rice; Low dilution, 0.0013 M): 0.61 gm
- Shoots (gm) (Rice; Low dilution, 0.0013 M): 0.34 gm
- Total (gm) (Rice; Low dilution, 0.0013 M): 0.95 gm
- Root/Shoot Ratio (Rice; Medium dilution, 0.013 M): 1.86
- Roots (gm) (Rice; Medium dilution, 0.013 M): 3.07 gm
- Shoots (gm) (Rice; Medium dilution, 0.013 M): 1.84 gm
- Total (gm) (Rice; Medium dilution, 0.013 M): 4.91 gm
- Root/Shoot Ratio (Soybean [2]; Low dilution, 0.0013 M): 0.93
- Roots (gm) (Soybean [2]; Low dilution, 0.0013 M): 4.60 gm
- Shoots (gm) (Soybean [2]; Low dilution, 0.0013 M): 4.90 gm
- Total (gm) (Soybean [2]; Low dilution, 0.0013 M): 9.50 gm
- Root/Shoot Ratio (Soybean [2]; Medium dilution, 0.013 M): 1.20
- Roots (gm) (Soybean [2]; Medium dilution, 0.013 M): 4.90 gm
- Shoots (gm) (Soybean [2]; Medium dilution, 0.013 M): 4.10 gm
- Total (gm) (Soybean [2]; Medium dilution, 0.013 M): 9.00 gm
- Percent Change v. Control, Roots (Corn [3]): 30%
- Percent Change v. Control, Shoots (Corn [3]): 16%
- Percent Change v. Control, Total (Corn [3]): 24%
- Root/Shoot Ratio (Corn [3]): 1.80
- Roots (gm), Average (Corn [3]; average of samples): 58.92 gm
- Shoots (gm), Average (Corn [3]; average of samples): 32.73 gm
- Total (gm), Average (Corn [3]; average of samples): 91.65 gm
- Percent Change v. Control, Roots (Peanuts): 17%
- Percent Change v. Control, Shoots (Peanuts): 31%
- Percent Change v. Control, Total (Peanuts): 24%
- Root/Shoot Ratio (Peanuts): 0.98
- Roots (gm), Average (Peanuts; average of samples): 19.93 gm
- Shoots (gm), Average (Peanuts; average of samples): 20.30 gm
- Total (gm), Average (Peanuts; average of samples): 40.23 gm
- Roots (gm) (Peanuts; single sample (pot)): 20.11 gm and 22.04 gm and 21.60 gm and 16.74 gm and 16.46 gm and 22.65 gm
- Shoots (gm) (Peanuts; single sample (pot)): 20.46 gm and 22.34 gm and 19.03 gm and 17.77 gm and 20.20 gm and 22.00 gm
- Total (gm) (Peanuts; single sample (pot)): 40.57 gm and 44.38 gm and 40.63 gm and 34.51 gm and 36.66 gm and 44.65 gm
- Percent Change v. Control, Roots (Wheat): 117%
- Percent Change v. Control, Shoots (Wheat): 266%
- Percent Change v. Control, Total (Wheat): 135%
- Root/Shoot Ratio (Wheat): 4.39
- Roots (gm), Average (Wheat; average of samples): 45.40 gm
- Shoots (gm), Average (Wheat; average of samples): 10.35 gm
- Total (gm), Average (Wheat; average of samples): 55.74 gm
- Percent Change v. Control, Roots (Soybean [4]; 0.001 M): 89%
- Percent Change v. Control, Shoots (Soybean [4]; 0.001 M): 29%
- Percent Change v. Control, Total (Soybean [4]; 0.001 M): 52%
- Root/Shoot Ratio (Soybean [4]; 0.001 M): 0.93
- Roots (gm), Average (Soybean [4]; 0.001 M): 9.18 gm
- Shoots (gm), Average (Soybean [4]; 0.001 M): 9.87 gm
- Total (gm), Average (Soybean [4]; 0.001 M): 19.05 gm
- Roots (gm) (Soybean [4]; 0.001 M, single sample (pot)): 7.30 gm and 8.00 gm and 11.30 gm and 12.30 gm and 7.80 gm and 8.40 gm
- Shoots (gm) (Soybean [4]; 0.001 M, single sample (pot)): 10.20 gm and 10.30 gm and 9.30 gm and 10.90 gm and 8.70 gm and 9.80 gm
- Total (gm) (Soybean [4]; 0.001 M, single sample (pot)): 17.50 gm and 18.30 gm and 20.60 gm and 23.20 gm and 16.50 gm and 18.20 gm
- Percent Change v. Control, Roots (Soybean [4]; 0.01 M): 54%
- Percent Change v. Control, Shoots (Soybean [4]; 0.01 M): 16%
- Percent Change v. Control, Total (Soybean [4]; 0.01 M): 31%
- Root/Shoot Ratio (Soybean [4]; 0.01 M): 0.84
- Roots (gm), Average (Soybean [4]; 0.01 M): 7.48 gm
- Shoots (gm), Average (Soybean [4]; 0.01 M): 8.86 gm
- Total (gm), Average (Soybean [4]; 0.01 M): 16.34 gm
- Shoots (gm) (Soybean [4]; 0.01 M, single sample (pot)): 11.20 gm and 6.00 gm and 8.30 gm and 9.90 gm and 8.90 gm
